Laboratory results: article PMC12445744, “Molecular docking to homology models of human and Trypanosoma brucei ERK8 that identified ortholog-specific inhibitors” (PLOS Neglected Tropical Diseases, 2025)
“And” between values parts separate entries of the source, which are not always exact repeats. Equal values may be shown once.

Molecular target: T1, HsERK8 (Homo sapiens, UniProt Q8TD08)
T1 construct: plasmid pGEX2T expressing the full-length hERK8 coding region; made in house; host or cells: Escherichia coli Rosetta 2 (DE3)
T1 sequence (Q8TD08 1-544): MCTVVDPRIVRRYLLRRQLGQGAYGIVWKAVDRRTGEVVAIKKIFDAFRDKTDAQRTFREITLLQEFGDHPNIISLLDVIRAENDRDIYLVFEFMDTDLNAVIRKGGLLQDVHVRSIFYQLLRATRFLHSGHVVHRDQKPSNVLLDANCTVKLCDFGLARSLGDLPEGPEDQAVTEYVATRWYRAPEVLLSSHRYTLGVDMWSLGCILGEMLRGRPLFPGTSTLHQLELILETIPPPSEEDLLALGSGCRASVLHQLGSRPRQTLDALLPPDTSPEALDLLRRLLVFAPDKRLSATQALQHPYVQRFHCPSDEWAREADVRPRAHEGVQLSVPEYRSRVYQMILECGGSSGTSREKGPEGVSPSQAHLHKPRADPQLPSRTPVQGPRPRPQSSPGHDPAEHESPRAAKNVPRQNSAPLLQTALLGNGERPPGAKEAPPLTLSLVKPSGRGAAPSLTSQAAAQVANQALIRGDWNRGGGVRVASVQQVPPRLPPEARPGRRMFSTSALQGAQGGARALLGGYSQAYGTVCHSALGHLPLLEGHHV
Experiment: Luciferase-based kinase inhibition assay (ATP luminescence), GST-tagged HsERK8 with MBP substrate
Type: biochemical
Conditions: for raw luminescence, HsERK8: sheet Kinase_glo_080924_IFPS (2), replicate wells, listed as Ida
Protocol: Escherichia coli strain Rosetta 2 (DE3) (Cat# 71397, MilliporeSigma, Burlington, MA) was transformed with the plasmid pGEX2T expressing the full-length hERK8 coding region or pGSTAg expressing the full-length TbERK8 coding region. One liter of Terrific Broth media containing 100 μg/ml Ampicillin and 30 μg/ml chloramphenicol in 2 L baffled flasks was inoculated with 25 mL from an overnight culture of Rosetta 2 strains harboring either the pGEX2T-hERK8 or pGSTAg-TbERK8 plasmid. Two baffled flasks were inoculated with each overnight strain and incubated and shaken at 175 RPM in a New Brunswick Innova 44R Incubator Shaker (Fischer Scientific, Pittsburgh, PA) at 37 °C until the cultures reached an O.D.600 of 0.94. Once the cultures in the flask reached the target O.D.600, the flasks were cooled to 4 °C in an ice water bath. The cooled cultures were induced by adding isopropyl β-D-1-thiogalactopyranoside (IPTG) to a final concentration of 0.1 mM and shaken at 16 °C for 16 hours at 175 RPM in a New Brunswick Innova 44R Incubator Shaker (Fischer Scientific, Pittsburgh, PA). On the next day, the cultures were pelleted by centrifugation at 9000 xg in a JLA 10.500 rotor (Beckman Coulter; Brea, CA), and the media was decanted. The pellet was flash-frozen in liquid nitrogen and then thawed on ice. The thawed pellet was resuspended in lysis buffer (25 mM Tris, 75 mM NaCl, 0.5% TritonX-100 and 0.5% Nonidet P-40, 1 mM phenylmethanesulfonyl fluoride, 1 mM benzamidine⋅HCl) and lysed using a microfluidizer M-110P from Microfluidics (Westwood, MA). The crude lysates were clarified by centrifugation at 140,000 xg in a 45Ti rotor (Beckman Coulter, Brea, CA) for 30 min at 4°C. The clarified lysate was loaded by gravity to a 3 mL glutathione agarose resin column (Cat# G-250–10, GOLDBIO, St. Louis, MO) formed in a 1.5 × 20 cm glass chromatography column (Cat# 7371522, Bio-Rad, Hercules, CA). The column was washed with 30 mL of PBS (pH 7.4) containing 1 mM DTT. Elution buffer (50 mM Tris buffer pH 8.0 containing 10 mM reduced glutathione and 1 mM DTT was added to the washed column), and 1 mL fractions were collected by gravity and examined by SDS-PAGE stained by Coomassie dye. Peak fractions pooled from the elution were dialyzed (4x 1:500 dilutions) in kinase buffer (30 mM Tris, pH 7.4, 10 mM MgCl2, 1 mM DTT, 5% glycerol).
We performed kinase assays in buffer K (30 mM Tris pH 7.4, 10 mM MgCl2, 1 mM DTT, 5% glycerol, 50 μM ATP, and 0.1 mg/mL BSA) at 30°C for 30 min in 30 μL reactions. GST-tagged HsERK8 and TbERK8 were tested using myelin basic protein (MBP) (Cat# 13–110, Millipore, Darmstadt, Germany) as the substrate at increasing concentrations to determine the optimal activity for the assay. ATP consumption was determined by adding equal volumes of the kinase assay reagent (Promega, Cat# V5601, Madison, WI) following the manufacturer’s protocol. Luminescence was measured using the microplate reader (SpectraMax L, Molecular Devices, Sunnyvale, CA).
These compounds were screened for kinase inhibition utilizing a luciferase-based assay. Briefly, the kinases were tested using MBP as the substrate at a 14-fold molar excess in 384-well flat-bottom white plates (BRANDTECH Scientific, Cat# 781681, Essex, CT). These compounds were tested at concentrations ranging from […] to 150 nM. The kinases plus MBP substrate reactions were incubated with each inhibitor for 30 minutes at 30°C. Equal volumes of kinase assay mix Promega (Cat# V5601, Madison, WI) were added to the kinase/inhibitor reaction after 30 minutes, following the manufacturer’s protocol. ATP luminescence was measured using a microplate reader (SpectraMax L, Molecular Devices, Sunnyvale, CA). IC50 values were calculated from assays done in triplicate by fitting the data using Prism 8.1.1 (GraphPad).

SMILES: CC(=O)[C@]1(O)Cc2c(O)c3c(c(O)c2[C@@H](O[C@H]2C[C@H](N)[C@H](O)[C@H](C)O2)C1)C(=O)c1ccccc1C3=O [Idarubicin]
- raw luminescence, HsERK8 (0.00015 mM compound): 5033.01 RLU and 5464.22 RLU and 4680.41 RLU
- raw luminescence, HsERK8 (0.00061 mM compound): 4929.7 RLU and 5104.88 RLU and 5152.04 RLU
- raw luminescence, HsERK8 (0.00244 mM compound): 4819.65 RLU and 4756.77 RLU and 4179.58 RLU
- raw luminescence, HsERK8 (0.00977 mM compound): 4606.3 RLU and 4691.64 RLU and 4170.6 RLU
- raw luminescence, HsERK8 (0.03906 mM compound): 4799.44 RLU and 4835.38 RLU and 4925.21 RLU
- raw luminescence, HsERK8 (0.15625 mM compound): 4702.87 RLU and 5131.83 RLU and 4550.15 RLU
- raw luminescence, HsERK8 (0.62500 mM compound): 4750.03 RLU and 4873.56 RLU and 4527.69 RLU
- raw luminescence, HsERK8 (2.50000 mM compound): 3723.67 RLU and 3768.58 RLU and 3368.82 RLU
- raw luminescence, HsERK8 (10.00000 mM compound, signal = ATP left): 988.186 RLU and 1334.05 RLU and 1307.1 RLU
- inhibitory effect on kinase activity of HsERK8 (concentrations below 4.0 x10^-5 M (above this the red compound blocked luminescence)): no detectible (n/d) inhibitory effect
